Laboratory results reported in patent US20060166867A1, “Novel conjugates of polysaccharides and uses thereof” (priority 2003, published 2006).
Values joined by “and” are separate entries in the source; they are usually repeats but may differ in a detail not shown here. Equal entries are not always repeated.

Key:
MT2 cells = test: in vitro; format: cell-based; conditions: human
In short: (§1)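 MT2 or cMAGI reporter cells infected with wild-type or resistant HIV-1 at 0.2-0.5 MOI for 4 days at 37° C with varying pAAC concentrations. Infection scored by counting blue-stained cMAGI cells and by microscopic syncytium assessment in MT2; cytotoxicity by trypan blue exclusion, as % dead cells.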

Strep. Pyogenes (gr. A) = test: MIC, broth microdilution; format: cell-based; conditions: Streptococcus pyogenes; Gram positive clinical isolate; read-out: Minimum Inhibitory Concentration
K. pneumoniae B2511 = test: MIC, broth microdilution; format: cell-based; conditions: Klebsiella pneumoniae, Gram negative clinical isolate, read-out: Minimum Inhibitory Concentration
[1] = test system: Enterococcus faecalis ATCC 29212; test: microbe, parasite or virus in culture; conditions: ATCC29212, read-out: Minimum Inhibitory Concentration
S. aureus MRSA = test: microbe, parasite or virus in culture; conditions: Staphylococcus aureus, read-out: Minimum Inhibitory Concentration
S. epidermidis MSSE = test: microbe, parasite or virus in culture; conditions: Staphylococcus epidermidis, read-out: Minimum Inhibitory Concentration
S. epidermidis MRSE = test: microbe, parasite or virus in culture; conditions: Staphylococcus epidermidis, read-out: Minimum Inhibitory Concentration
[2] = test system: Enterococcus faecalis (clinical isolate); test: microbe, parasite or virus in culture; conditions: read-out: Minimum Inhibitory Concentration
[3] = test system: Escherichia coli ATCC 25922; test: microbe, parasite or virus in culture; conditions: ATCC25922, read-out: Minimum Inhibitory Concentration
[4] = test system: Pseudomonas aeruginosa ATCC 27853; test: microbe, parasite or virus in culture; conditions: ATCC27853, read-out: Minimum Inhibitory Concentration
[5] = test system: Acinetobacter baumannii ATCC 19606; test: microbe, parasite or virus in culture; conditions: ATCC19606, read-out: Minimum Inhibitory Concentration
E. Coli-ESBL negative = test: microbe, parasite or virus in culture; conditions: Escherichia coli, read-out: Minimum Inhibitory Concentration
[6] = test system: K. pneumoniae-ESBL negative; test: microbe, parasite or virus in culture; conditions: Klebsiella pneumoniae, read-out: Minimum Inhibitory Concentration
Enterobacter aerogenes = test: microbe, parasite or virus in culture; conditions: Klebsiella aerogenes, read-out: Minimum Inhibitory Concentration
[7] = test system: A. baumannii-amikacin^s, meropenem^s; test: microbe, parasite or virus in culture; conditions: Acinetobacter baumannii, read-out: Minimum Inhibitory Concentration
[8] = test system: A. baumannii-amikacin^r, meropenem^r; test: microbe, parasite or virus in culture; conditions: Acinetobacter baumannii, read-out: Minimum Inhibitory Concentration
in vitro = format: cell-based; conditions: human; Table 4; tryphan blue exclusion assay for MT2 cells; read-out: Cytotoxicity
In short: as §1

VRE faecium = conditions: clinical isolate, Table 7
A. baumannii E11436 = test: MIC, broth microdilution; format: cell-based, Acinetobacter baumannii; conditions: clinical isolate, Table 7
Protocol: Minimal Inhibition Concentration (MIC) measurements: The Minimal Inhibitory Concentration (MIC) was generally determined by the Broth Microdilution method (based on the protocol described in Clinical and Laboratory Standard Institute (CLSI) NCCLS (2003) M7-A6), as follows:
A stock solution of each of the tested compounds was prepared by diluting the compound to a 2,560 μg/ml concentration with an appropriate solvent. The stock solution was then serially 2-fold diluted in 96-well microdilution trays using Cation-Adjusted Mueller-Hinton Broth (CAMHB) until reaching the desired range of concentrations, whereas each well contained double the final working concentration. Each row further had one growth control well (medium+inoculum only), and one sterility control well (medium+tested compound). Plates were stored at −70° C. until used.
The tested microorganisms were used as fresh overnight cultures on blood agar (for gram-positive organisms) or MacConkey agar (for gram-negatives). A standardized inoculum suspension was prepared by the direct colony suspension method, using sterile saline (equivalent to a 0.5 McFarland standard).
Thus, 50 μl of the inoculum suspension were added to each tested well (except for the sterility control well), and […] was performed during 18-24 hours (depending on the tested microorganism or compound) at 35° C.

NCC1OC(OC2C(CO)OC(OC3C(O)C(N)CC(N)C3OC3OC(CN)C(O)C(O)C3N)C2O)C(N)C(O)C1O (stereo not shown) [Neomycin]
Cytotoxicity (MT2 cells): >300 µM
MIC (Strep. Pyogenes (gr. A)): 16 µg/mL and 17.6 µM
MIC (K. pneumoniae B2511): 1.5 µg/mL and 1.65 µM
MIC [1]: 128 µg/mL and 141 µM
MIC (S. aureus MRSA): 1 µg/mL and 1.1 µM
MIC (S. epidermidis MSSE): 0.5 µg/mL and 0.55 µM
MIC (S. epidermidis MRSE): 0.5 µg/mL and 0.55 µM
MIC [2]: 128 µg/mL and 141 µM
MIC [3]: 1 µg/mL and 1.1 µM
MIC [4]: 128 µg/mL and 141 µM
MIC [5]: 6 µg/mL and 6.6 µM
MIC (E. Coli-ESBL negative): 1 µg/mL and 1.1 µM
MIC [6]: 0.7 µg/mL and 0.77 µM
MIC (Enterobacter aerogenes): 0.7 µg/mL and 0.77 µM
MIC [7]: 3 µg/mL and 3.3 µM
MIC [8]: 106 µM and 96 µg/mL

CC(=O)N[C@H](CCCNC(=N)N)C(=O)N[C@H](CCCNC(=N)N)C(=O)N[C@H](CCCNC(=N)N)C(=O)N[C@H](CCCNC(=N)N)C(=O)N[C@H](CCCNC(=N)N)C(=O)N[C@H](CCCNC(=N)N)C(=O)N[C@H](CCCNC(=N)N)C(=O)N[C@H](CCCNC(=N)N)C(=O)N[C@H](CCCNC(=N)N)C(=O)O [Compound 12, D-Arg-9-mer-NHAc]
CC50 (in vitro): 150 µM
Minimum Inhibitory Concentration (VRE faecium): > 128.0 mg/L

D-Arg-9-mer-neomycin [Compound 14]
Minimum Inhibitory Concentration (A. baumannii E11436): 64.0 mg/L
